Results reported in US20050282818A1, “Ubiquitin ligase inhibitors” (Rigel Pharmaceuticals, Inc., priority 2004, published 2005).

Key:
Type in all cases: cell-based
[1] = system: DLD-1 cells; assay: Cell proliferation PAD assay, DLD-1; settings: Homo sapiens, DLD1 cells, 6pt, 48 hours
Text: (§1) Table 3 illustrates the inhibitory activity of the compounds of the invention determined by the PAD assay described above in a number of cell types. Apoptosis was not
(§2) Cell lines used are available from American Type Culture Collection (ATCC), for example, cell cultures containing A549 (ATCC# CCL-185), HeLa (ATCC# CCL-2), HCT116 ATTC# CCL-247), and H1299 (ATCC# CRL-5803) cells were maintained in T175 flasks following the ATCC recommended media and handling procedures. […] A 20,000 cells/ml solution was made for plating. Cells were plated in black Packard 96 well plates by placing 100 μl per well (2,000 cells per well). […] The definitions of the cell types used are as follows: A549 is lung carcinoma; HI 299 is non-small cell lung carcinoma; HI 155 is non-small cell lung carcinoma; AsPC-1 is pancreatic adenocarcinoma; Caov-3 is ovarian adenocarcinoma; COLO 205 is colorectal adenocarcinoma; DLD-1 colorectal adenocarcinoma; HCT116 is colorectal carcinoma; DU 145 is prostate carcinoma; ES-2 is ovarian clear cell carcinoma; H460 is large cell lung carcinoma; HELA is cervical adenocarcinoma; MIA PaCa-2 is pancreatice carcinoma; OVCAR-3 is ovarian adenocarcinoma; OVCAR8 is ovarian carcinoma; PC3 is prostate adenocarcinoma; SK-OV-3 is ovarian adenocarcinoma; SU86.86 is pancreatic carcinoma; TOV-21G is avarian clear cell carcinoma; U2OS is bone osteosarcoma; is ASPC-I is pancreatic adenocarcinoma; BXPC-3 is pabcreatic adenocarcinoma; HL60 is promyeloblast promyelocytic leukemia; K562 is bone marrow chronic myelogenous leukemia; L1210 is mouse lymphocytic leukemia; MOLT3 is T lymphoblast acute lymphoblastic leukemia; MOLT4 is T lymphoblast acute lymphoblastic leukemia; SW620 is colorectal adenocarcinoma; THP-1 is monocyte acute monocytic leukemia; U937 is histiocytic lymphoma; and UACC-257 is melanoma.
(§3) Compounds and additional media were added 24 hours after cell plating. A compound master plate was created with concentrations 500 times greater than the final concentration added to the cells. All compound testing was done in duplicate using 6.3 fold dilutions starting with 10 mM. All outside wells (and 4 internal wells) were DMSO controls. Taxol and at least one additional control were run on all plates. Three microliters of the compound master plate were added to deep well blocks containing 750 μl of RPMI media. One hundred microliters were transferred from the compound/media deep well blocks to the plated cells resulting in a 500 fold dilution of the compounds. Cells were grown at 37° C., 5% CO2 for 48 hours.
(§4) Cells to be analyzed by photography were fixed and stained. One hundred microliters of media were removed and 100 μl of 9.3% formamide was added to each well. Plates were left on the benchtop for 45 minutes. A staining solution containing 1.55 μl of 1 mg/ml DAPI added to 18.75 ml PBS was warmed for 15 minutes at 37° C. The cells were aspirated prior to washing with 100 μl of PBS. Seventy microliters of PBS were aspirated and 170 μl of the DAPI solution were added to each well of fixed cells. Plates were left at room temperature for one hour then aspirated and washed twice with 100 μl of PBS. The stained cells were left at 4° C. for a minimum of 16 hours before photographic analysis with Array Scan II (Cellomics). Analysis of the photographic images to determine numbers of live cells (proliferation), apoptotic cells and dead cells, were according to the methods described in U.S. Utility patent application Ser. No. 10/652,440, which incorporated herein in its entirety.

[2] = system: HELA cells; assay: Cell proliferation PAD assay, HeLa; settings: Homo sapiens, 6pt, 48 hours
Text: as §1, §2, §3, §4

[3] = system: HCT116 cells; assay: Cell proliferation PAD assay, HCT116; settings: Homo sapiens, HCT-116, 6pt, 48 hours, read-out: HCT116 6pt
Text: as §1, §2, §3, §4

[4] = system: U2OS cells; assay: Cell proliferation PAD assay, U2OS; settings: Homo sapiens, 6pt, 48 hours
Text: as §1, §2, §3, §4

IC50 [1] [nM]	IC50 [2] [nM]	IC50 [3] [nM]	IC50 [4] [nM]	SMILES
1000 to 20000	1000 to 20000	1000 to 20000	< 1000	O=S(=O)(c1c(Cl)ccc2nonc12)N1CCN(c2ncc(C(F)(F)F)cc2Cl)CC1 [compound 179, 5-chloro-4-({4-[3-chloro-5-(trifluoromethyl)pyridin-2-yl]piperazin-1-yl}sulfonyl)-2,1,3-benzoxadiazole]
< 1000	1000 to 20000	< 1000	< 1000	Cc1cccc(N2CCN(S(=O)(=O)c3c(Cl)ccc4nonc34)CC2)n1 [compound 202, 5-chloro-4-{[4-(6-methylpyridin-2-yl)piperazin-1-yl]sulfonyl}-2,1,3-benzoxadiazole]
